From patent publication US11993599B2, “Therapeutic compounds” (Genentech, Inc., priority 2021, dated 2024)

Assays:
BRM = BRM (Homo sapiens, UniProt P51531); experiment: Immunofluorescence assay for BRM degradation in SW1573 cells; type: cell-based; parameters: treated overnight at 4° C. with either BRM primary antibody (Cell signaling Cat #11966) or BRG primary antibody; endogenous in cells; host or cells: SW1573; details: 20 hours incubation; for DC50: immunofluorescence mean nuclear signal, read-out: BRM IF Degradation IC50; for BRM IF Degradation Sinf (%): normalized to a known degrader control
How it was run: (§1)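 SW1573 cells were treated with compound for 20 h, fixed, permeabilized and immunostained for BRM or BRG1 with a Hoechst nuclear counterstain. Mean nuclear signal intensity per cell was quantified by high-content imaging, normalized to a known degrader control, and dose-response curves were fit with a floating maximum to derive Dmax.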

BRG1 = molecular target: T1, BRG1 (Homo sapiens, UniProt P51532); experiment: Immunofluorescence assay for BRG1 degradation in SW1573 cells; type: cell-based; details: 20 hours incubation; for DC50: immunofluorescence mean nuclear signal, read-out: BRG1 IF Degradation IC50; for Dmax: SW1573, 20 h, normalized to a known degrader control, read-out: BRG1 IF Degradation Sinf (%)
T1 construct: either BRM primary antibody (Cell signaling Cat #11966) or BRG primary antibody (Abcam, ab 110641); endogenous in cells; host or cells: SW1573
How it was run: as §1

BRM, sequence (P51531 whole entry): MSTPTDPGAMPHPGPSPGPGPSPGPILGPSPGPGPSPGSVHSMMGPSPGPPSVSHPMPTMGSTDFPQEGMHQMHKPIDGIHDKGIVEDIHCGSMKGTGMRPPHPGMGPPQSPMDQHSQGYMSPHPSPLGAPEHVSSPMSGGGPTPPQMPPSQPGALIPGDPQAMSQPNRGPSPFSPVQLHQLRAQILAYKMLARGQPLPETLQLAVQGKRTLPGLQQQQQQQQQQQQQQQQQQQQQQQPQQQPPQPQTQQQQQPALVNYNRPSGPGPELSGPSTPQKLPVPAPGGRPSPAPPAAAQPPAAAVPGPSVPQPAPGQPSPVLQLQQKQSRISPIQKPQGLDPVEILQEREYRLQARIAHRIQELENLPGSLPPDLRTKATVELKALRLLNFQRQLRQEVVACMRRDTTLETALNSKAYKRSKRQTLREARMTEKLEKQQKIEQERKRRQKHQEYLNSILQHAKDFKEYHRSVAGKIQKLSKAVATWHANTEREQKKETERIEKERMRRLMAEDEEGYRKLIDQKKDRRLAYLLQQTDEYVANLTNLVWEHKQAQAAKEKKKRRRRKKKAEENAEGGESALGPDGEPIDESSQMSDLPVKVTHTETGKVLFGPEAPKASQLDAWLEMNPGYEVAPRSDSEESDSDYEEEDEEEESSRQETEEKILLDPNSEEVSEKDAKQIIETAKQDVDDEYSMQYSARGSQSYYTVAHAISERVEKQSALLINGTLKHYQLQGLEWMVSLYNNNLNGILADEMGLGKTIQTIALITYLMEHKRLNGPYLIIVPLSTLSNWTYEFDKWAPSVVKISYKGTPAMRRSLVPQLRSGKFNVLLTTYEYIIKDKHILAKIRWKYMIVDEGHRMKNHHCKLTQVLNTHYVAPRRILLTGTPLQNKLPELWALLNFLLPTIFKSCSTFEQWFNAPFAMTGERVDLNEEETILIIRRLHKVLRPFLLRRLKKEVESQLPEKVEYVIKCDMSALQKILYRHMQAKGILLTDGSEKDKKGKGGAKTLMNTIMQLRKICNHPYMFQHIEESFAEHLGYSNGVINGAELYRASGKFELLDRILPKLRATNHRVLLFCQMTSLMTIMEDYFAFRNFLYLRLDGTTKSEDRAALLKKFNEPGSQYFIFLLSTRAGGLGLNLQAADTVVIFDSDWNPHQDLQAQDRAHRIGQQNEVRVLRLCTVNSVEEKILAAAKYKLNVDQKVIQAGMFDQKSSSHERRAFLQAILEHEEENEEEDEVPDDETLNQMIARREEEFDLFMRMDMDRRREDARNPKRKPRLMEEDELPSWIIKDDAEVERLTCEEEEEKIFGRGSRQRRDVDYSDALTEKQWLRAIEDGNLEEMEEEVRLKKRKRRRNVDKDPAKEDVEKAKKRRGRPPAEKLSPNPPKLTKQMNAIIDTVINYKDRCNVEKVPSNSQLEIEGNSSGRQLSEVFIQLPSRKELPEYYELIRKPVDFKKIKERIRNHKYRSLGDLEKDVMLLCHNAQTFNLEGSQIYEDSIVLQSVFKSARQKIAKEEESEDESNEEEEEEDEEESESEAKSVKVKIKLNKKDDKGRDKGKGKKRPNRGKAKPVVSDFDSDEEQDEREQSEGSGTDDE
T1 sequence (P51532 whole entry): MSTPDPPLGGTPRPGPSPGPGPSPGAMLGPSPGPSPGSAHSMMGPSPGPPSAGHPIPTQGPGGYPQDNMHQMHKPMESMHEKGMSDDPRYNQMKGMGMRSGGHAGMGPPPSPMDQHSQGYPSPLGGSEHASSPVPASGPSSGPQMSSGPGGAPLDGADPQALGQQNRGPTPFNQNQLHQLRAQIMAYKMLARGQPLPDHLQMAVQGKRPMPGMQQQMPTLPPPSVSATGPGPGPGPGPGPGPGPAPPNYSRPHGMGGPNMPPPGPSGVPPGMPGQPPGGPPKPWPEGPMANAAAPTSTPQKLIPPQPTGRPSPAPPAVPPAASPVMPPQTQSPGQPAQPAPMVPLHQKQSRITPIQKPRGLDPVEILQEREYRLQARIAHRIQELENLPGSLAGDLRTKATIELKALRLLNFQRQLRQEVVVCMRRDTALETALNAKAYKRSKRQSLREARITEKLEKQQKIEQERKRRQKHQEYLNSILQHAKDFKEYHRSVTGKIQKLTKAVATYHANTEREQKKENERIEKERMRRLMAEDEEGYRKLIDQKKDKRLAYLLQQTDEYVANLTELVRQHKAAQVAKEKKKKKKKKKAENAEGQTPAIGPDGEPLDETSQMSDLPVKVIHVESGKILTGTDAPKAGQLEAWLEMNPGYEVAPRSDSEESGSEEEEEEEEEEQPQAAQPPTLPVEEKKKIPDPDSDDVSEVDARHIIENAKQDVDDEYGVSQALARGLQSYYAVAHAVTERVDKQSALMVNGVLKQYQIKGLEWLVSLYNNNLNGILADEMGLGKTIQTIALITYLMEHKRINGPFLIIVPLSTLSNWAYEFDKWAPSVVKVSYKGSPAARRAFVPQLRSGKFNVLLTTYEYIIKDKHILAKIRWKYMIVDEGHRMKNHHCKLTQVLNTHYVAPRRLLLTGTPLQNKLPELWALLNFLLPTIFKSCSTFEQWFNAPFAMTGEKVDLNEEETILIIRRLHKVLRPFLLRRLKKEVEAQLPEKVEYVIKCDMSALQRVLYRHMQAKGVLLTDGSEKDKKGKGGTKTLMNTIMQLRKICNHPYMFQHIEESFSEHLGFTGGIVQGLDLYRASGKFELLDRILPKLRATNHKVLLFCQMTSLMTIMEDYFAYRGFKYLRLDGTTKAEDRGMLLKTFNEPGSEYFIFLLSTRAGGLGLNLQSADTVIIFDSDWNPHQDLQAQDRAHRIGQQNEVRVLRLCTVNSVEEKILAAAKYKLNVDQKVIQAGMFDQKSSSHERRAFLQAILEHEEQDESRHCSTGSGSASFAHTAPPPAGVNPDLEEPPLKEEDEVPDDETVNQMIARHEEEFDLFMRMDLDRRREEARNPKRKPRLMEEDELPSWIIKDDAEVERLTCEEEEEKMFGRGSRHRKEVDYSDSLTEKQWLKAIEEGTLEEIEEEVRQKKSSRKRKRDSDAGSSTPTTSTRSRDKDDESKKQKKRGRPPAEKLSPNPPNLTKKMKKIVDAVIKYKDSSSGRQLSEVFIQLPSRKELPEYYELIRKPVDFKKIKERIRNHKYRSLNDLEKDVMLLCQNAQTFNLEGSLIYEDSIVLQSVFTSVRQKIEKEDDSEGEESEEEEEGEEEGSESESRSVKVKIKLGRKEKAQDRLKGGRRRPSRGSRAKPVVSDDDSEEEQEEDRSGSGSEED

Compound | DC50 (BRM) | BRM IF Degradation Sinf (%) (BRM) | DC50 (BRG1) | Dmax (BRG1)
Nc1nnc(-c2ccccc2O)cc1N1CC2CCC(C1)N2c1ccnc(C#CCN2C[C@H]3OCC[C@H]32)c1 [Compound 161, 2-[6-amino-5-[8-[2-[3-[(1R,5R)-2-oxa-6-azabicyclo[3.2.0]heptan-6-yl]prop-1-ynyl]-4-pyridyl]-3,8-diazabicyclo[3.2.1]octan-3-yl]pyridazin-3-yl]phenol] | < 10 nM | E (E indicates −30%-−70%) | 10 to 100 nM | 30 to 70%
CN1CCCN(CC#Cc2cc(N3C4CCC3CN(c3cc(-c5ccccc5O)nnc3N)C4)ccn2)CC1 [Compound 47, 2-[6-amino-5-[8-[2-[3-(4-methyl-1,4-diazepan-1-yl)prop-1-ynyl]-4-pyridyl]-3,8-diazabicyclo[3.2.1]octan-3-yl]pyridazin-3-yl]phenol] | > 100 nM | E (E indicates −30%-−70%) | > 100 nM | 0 to 30%
CC1CCCN(CC#Cc2cc(N3C4CCC3CN(c3cc(-c5ccccc5O)nnc3N)C4)ccn2)CC1 (stereo not shown) [Compound 200, 2-[6-amino-5-[8-[2-[3-(4-methylazepan-1-yl)prop-1-ynyl]-4-pyridyl]-3,8-diazabicyclo[3.2.1]octan-3-yl]pyridazin-3-yl]phenol] | < 10 nM | F (F indicates −71%-−120%) | < 10 nM | 71 to 120%
Nc1nnc(-c2ccccc2O)cc1N1CC2CCC(C1)N2c1ccnc(C#CCN2CC3CC2CO3)c1 (stereo not shown) [Compound 132, 2-[6-amino-5-[8-[2-[3-(2-oxa-5-azabicyclo[2.2.1]heptan-5-yl)prop-1-ynyl]-4-pyridyl]-3,8-diazabicyclo[3.2.1]octan-3-yl]pyridazin-3-yl]phenol] | < 10 nM | E (E indicates −30%-−70%) | < 10 nM | 30 to 70%
Nc1nnc(-c2ccccc2O)cc1N1CC2CCC(C1)N2c1ccnc(C#CCN2CCc3nccn3CC2)c1 [Compound 203, 2-[6-amino-5-[8-[2-[3-(5,6,8,9-tetrahydroimidazo[l,2-d][1,4]diazepin-7-yl)prop-1-ynyl]-4-pyridyl]-3,8-diazabicyclo[3.2.1]octan-3-yl]pyridazin-3-yl]phenol] | 10 to 100 nM | E (E indicates −30%-−70%) | > 100 nM | 
Nc1nnc(-c2ccccc2O)cc1N1CC2CCC(C1)N2c1ccnc(C#CCN2CC(O)C2)c1 [Compound 142, 1-[3-[4-[3-[3-amino-6-(2-hydroxyphenyl)pyridazin-4-yl]-3,8-diazabicyclo[3.2.1]octan-8-yl]-2-pyridyl]prop-2-ynyl]azetidin-3-ol] | 10 to 100 nM | E (E indicates −30%-−70%) | 10 to 100 nM | 30 to 70%
Nc1nnc(-c2ccccc2O)cc1N1CC2CCC(C1)N2c1ccnc(C#CCN2CCC3(C2)CC3(F)F)c1 (stereo not shown) [Compound 84, 2-[6-amino-5-[8-[2-[3-(2,2-difluoro-5-azaspiro[2.4]heptan-5-yl)prop-1-ynyl]-4-pyridyl]-3,8-diazabicyclo[3.2.1]octan-3-yl]pyridazin-3-yl]phenol] | < 10 nM | E (E indicates −30%-−70%) | > 100 nM | 
Nc1nnc(-c2ccccc2O)cc1N1CC2CCC(C1)N2c1ccnc(C#CCN2CC(CC(F)F)C2)c1 [Compound 158, 2-[6-amino-5-[8-[2-[3-[3-(2,2-difluoroethyl)azetidin-1-yl]prop-1-ynyl]-4-pyridyl]-3,8-diazabicyclo[3.2.1]octan-3-yl]pyridazin-3-yl]phenol] | < 10 nM | F (F indicates −71%-−120%) | < 10 nM | 30 to 70%
Nc1nnc(-c2ccccc2O)cc1N1CC2CCC(C1)N2c1ccnc(C#CCN2CC(C(F)(F)F)C2)c1 [Compound 232, 2-[6-amino-5-[8-[2-[3-[3-(trifluoromethyl)azetidin-1-yl]prop-1-ynyl]-4-pyridyl]-3,8-diazabicyclo[3.2.1]octan-3-yl]pyridazin-3-yl]phenol] | 10 to 100 nM | E (E indicates −30%-−70%) | < 10 nM | 30 to 70%
Nc1nnc(-c2ccccc2O)cc1N1CC2CCC(C1)N2c1ccnc(C#CCN2CCC3CC[C@@H](O)C32)c1 (stereo partly drawn) [Compound 78, (6R)-1-[3-[4-[3-[3-amino-6-(2-hydroxyphenyl)pyridazin-4-yl]-3,8-diazabicyclo[3.2.1]octan-8-yl]-2-pyridyl]prop-2-ynyl]-3,3a,4,5,6,6a-hexahydro-2H-cyclopenta[b]pyrrol-6-ol] | < 10 nM | E (E indicates −30%-−70%) | > 100 nM | 
Nc1nnc(-c2ccccc2O)cc1N1CC2CCC(C1)N2c1ccnc(C#CCN2CC3(CC3)C2)c1 [Compound 233, 2-[6-amino-5-[8-[2-[3-(5-azaspiro[2.3]hexan-5-yl)prop-1-ynyl]-4-pyridyl]-3,8-diazabicyclo[3.2.1]octan-3-yl]pyridazin-3-yl]phenol] | < 10 nM | E (E indicates −30%-−70%) | < 10 nM | 30 to 70%
Nc1nnc(-c2ccccc2O)cc1N1CC2CCC(C1)N2c1ccnc(C#CCN2CCCC(F)(F)CC2)c1 [Compound 189, 2-[6-amino-5-[8-[2-[3-(4,4-difluoroazepan-1-yl)prop-1-ynyl]-4-pyridyl]-3,8-diazabicyclo[3.2.1]octan-3-yl]pyridazin-3-yl]phenol] | < 10 nM | F (F indicates −71%-−120%) | < 10 nM | 30 to 70%
Nc1nnc(-c2ccccc2O)cc1N1CC2CCC(C1)N2c1ccnc(C#CCN2CC3(CCOCC3)C2)c1 [Compound 49, 2-[6-amino-5-[8-[2-[3-(7-oxa-2-azaspiro[3.5]nonan-2-yl)prop-1-ynyl]-4-pyridyl]-3,8-diazabicyclo[3.2.1]octan-3-yl]pyridazin-3-yl]phenol] | < 10 nM | F (F indicates −71%-−120%) | < 10 nM | 30 to 70%
CC1CN(CC#Cc2cc(N3C4CCC3CN(c3cc(-c5ccccc5O)nnc3N)C4)ccn2)C1 [Compound 172, 2-[6-amino-5-[8-[2-[3-(3-methylazetidin-1-yl)prop-1-ynyl]-4-pyridyl]-3,8-diazabicyclo[3.2.1]octan-3-yl]pyridazin-3-yl]phenol] | < 10 nM | E (E indicates −30%-−70%) | 10 to 100 nM | 71 to 120%
CC1(CO)CCCN(CC#Cc2cc(N3C4CCC3CN(c3cc(-c5ccccc5O)nnc3N)C4)ccn2)CC1 (stereo not shown) [Compound 197, 2-[6-amino-5-[8-[2-[3-[4-(hydroxymethyl)-4-methyl-azepan-1-yl]prop-1-ynyl]-4-pyridyl]-3,8-diazabicyclo[3.2.1]octan-3-yl]pyridazin-3-yl]phenol] | < 10 nM | F (F indicates −71%-−120%) | < 10 nM | 30 to 70%
CC1(C)CC(O)C(O)CN(CC#Cc2cc(N3C4CCC3CN(c3cc(-c5ccccc5O)nnc3N)C4)ccn2)C1 (stereo not shown) [Compound 210, 1-[3-[4-[3-[3-amino-6-(2-hydroxyphenyl)pyridazin-4-yl]-3,8-diazabicyclo[3.2.1]octan-8-yl]-2-pyridyl]prop-2-ynyl]-6,6-dimethyl-azepane-3,4-diol] | > 100 nM | E (E indicates −30%-−70%) | > 100 nM | 
CC[C@@H]1COCCN1CC#Cc1cc(N2C3CCC2CN(c2cc(-c4ccccc4O)nnc2N)C3)ccn1 [Compound 48, 2-[6-amino-5-[8-[2-[3-[(3R)-3-ethylmorpholin-4-yl]prop-1-ynyl]-4-pyridyl]-3,8-diazabicyclo[3.2.1]octan-3-yl]pyridazin-3-yl]phenol] | 10 to 100 nM | E (E indicates −30%-−70%) | 10 to 100 nM | 0 to 30%
Nc1nnc(-c2ccccc2O)cc1N1CC2CCC(C1)N2c1ccnc(C#CCN2CCC[C@@H]3OCC[C@@H]32)c1 [Compound 90, 2-[5-[8-[2-[3-[(3aS,7aS)-3,3a,5,6,7,7a-hexahydro-2H-furo[3,2-b]pyridin-4-yl]prop-1-ynyl]-4-pyridyl]-3,8-diazabicyclo[3.2.1]octan-3-yl]-6-amino-pyridazin-3-yl]phenol] | 10 to 100 nM | E (E indicates −30%-−70%) | 10 to 100 nM | 0 to 30%
Nc1nnc(-c2ccccc2O)cc1N1CC2CCC(C1)N2c1ccnc(C#CCN2CC3COCC3C2)c1 (stereo not shown) [Compound 76, 2-[5-[8-[2-[3-(1,3,3a,4,6,6a-hexahydrofuro[3,4-c]pyrrol-5-yl)prop-1-ynyl]-4-pyridyl]-3,8-diazabicyclo[3.2.1]octan-3-yl]-6-amino-pyridazin-3-yl]phenol] | < 10 nM | E (E indicates −30%-−70%) | < 10 nM | 0 to 30%
Nc1nnc(-c2ccccc2O)cc1N1CC2CCC(C1)N2c1ccnc(C#CCN2CCCC3(CC2)CC3(F)F)c1 (stereo not shown) [Compound 208, 2-[6-amino-5-[8-[2-[3-(2,2-difluoro-7-azaspiro[2.6]nonan-7-yl)prop-1-ynyl]-4-pyridyl]-3,8-diazabicyclo[3.2.1]octan-3-yl]pyridazin-3-yl]phenol] | < 10 nM | E (E indicates −30%-−70%) | < 10 nM | 30 to 70%
